Laboratory results: US20260234157A1, “COMPOUND AND METHOD FOR TARGETED DEGRADATION OF ANDROGEN RECEPTOR” (Gan & Lee Pharmaceuticals Co., Ltd., priority 2023, published 2026)
Substitutions are numbered along the chain they refer to. Read-outs that look alike come from different tables or passages of the source.

Assays:
AR protein [1] = biological target: T1, AR protein (Homo sapiens, UniProt P10275, T878A); test: Degradation of AR protein in LNCaP cells (Western blot); format: cell-based; details: for inhibition at 0.01 µM: read-out: Degradation rates of the AR protein in LNCaP cells, 10 nM (%); for inhibition at 0.1 µM: read-out: Degradation rates of the AR protein in LNCaP cells, 100 nM (%)
T1 construct: degradation activity of the compounds disclosed in the present disclosure on AR protein in LNCaP cells; host or cells: LNCaP FGC
T1 sequence (P10275 1-920 T878A): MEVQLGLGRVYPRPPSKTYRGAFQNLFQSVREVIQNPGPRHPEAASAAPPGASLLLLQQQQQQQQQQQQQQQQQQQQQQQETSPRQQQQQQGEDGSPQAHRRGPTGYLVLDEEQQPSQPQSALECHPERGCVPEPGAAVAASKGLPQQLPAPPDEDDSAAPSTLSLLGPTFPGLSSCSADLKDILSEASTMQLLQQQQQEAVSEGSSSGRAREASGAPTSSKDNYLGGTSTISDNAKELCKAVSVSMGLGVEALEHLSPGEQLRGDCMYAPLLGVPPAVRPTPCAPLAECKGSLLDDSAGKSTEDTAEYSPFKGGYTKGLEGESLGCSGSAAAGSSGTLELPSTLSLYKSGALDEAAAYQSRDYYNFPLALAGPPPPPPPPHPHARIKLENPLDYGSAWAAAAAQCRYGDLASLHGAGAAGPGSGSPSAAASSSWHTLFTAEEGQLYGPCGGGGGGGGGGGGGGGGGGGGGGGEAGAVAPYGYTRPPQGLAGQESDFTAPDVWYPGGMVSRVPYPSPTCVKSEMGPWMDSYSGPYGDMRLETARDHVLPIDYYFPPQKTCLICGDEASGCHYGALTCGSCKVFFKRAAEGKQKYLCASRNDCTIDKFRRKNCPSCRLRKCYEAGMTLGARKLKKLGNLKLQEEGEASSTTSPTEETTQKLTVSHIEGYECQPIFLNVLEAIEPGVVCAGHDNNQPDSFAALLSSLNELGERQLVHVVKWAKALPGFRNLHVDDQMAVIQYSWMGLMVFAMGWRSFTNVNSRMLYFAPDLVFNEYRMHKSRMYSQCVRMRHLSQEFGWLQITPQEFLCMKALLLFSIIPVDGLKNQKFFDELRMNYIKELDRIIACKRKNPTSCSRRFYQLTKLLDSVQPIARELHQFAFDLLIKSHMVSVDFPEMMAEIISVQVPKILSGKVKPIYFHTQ
Procedure: The degradation activity of the compounds disclosed in the present disclosure on AR protein in LNCaP cells (cell source: ATCC)
(§1) Corresponding solvent controls were also set and cultured for 8 hours. After 8 hours of cultivation, the culture medium was removed and the cells were washed with PBS. RIPA lysis buffer containing 1% Protease Inhibitor Cocktail was added, and the total protein extract was obtained by lysis and centrifugation. The protein concentration in the extract was detected by BCA method. Protein electrophoresis was performed using SDS-PAGE, followed by transfer of the protein onto a PVDF (Millipore Sigma catalog No. PSRP010R5) membrane at 100V constant voltage for 60 minutes. The PVDF membrane was then placed in a 1×TBST solution with 5% milk and blocked at room temperature for 1 hour. […] The primary antibody solution was discarded and the PVDF membrane was washed three times with 1×TBST for 5 minutes/time. […] The secondary antibody solution was discarded and the PVDF membrane was washed three times with 1×TBST for 5 minutes/time. Western blot imaging was performed by using a dual color infrared laser imaging system (Licor catalog No. Odyssey CLX). Bands were analyzed in grayscale using Image Studio software. For each sample, GAPDH protein bands were detected as internal reference. The degradation rates of the AR protein for the compounds and the positive control sample were calculated based on grayscale of the protein bands.

AR protein [2] = biological target: T2, AR protein (Homo sapiens, UniProt P10275); test: Degradation of AR protein in VCaP cells (Western blot); format: cell-based; details: 8 hours; for inhibition at 0.01 µM: read-out: Degradation rate of the AR protein in VCaP cells, 10 nM (%); for inhibition at 0.1 µM: read-out: Degradation rate of the AR protein in VCaP cells, 100 nM (%)
T2 construct: degradation activity of the compounds disclosed in the present disclosure on AR protein in VCaP cells; host or cells: VCaP
T2 sequence (P10275 1-920): T1 sequence (P10275 1-920 T878A) with A878T
Procedure: The degradation activity of the compounds disclosed in the present disclosure on AR protein in VCaP cells (cell source: ATCC)
as §1

[3] = LNCaP cells, compound 10 nM, 8 hours, Western blot grayscale, GAPDH internal reference
[4] = LNCaP cells, compound 100 nM, 8 hours, Western blot grayscale, GAPDH internal reference

Row | Compound | inhibition at 0.01 µM (AR protein [1]; [3]) | inhibition at 0.1 µM (AR protein [1]; [4]) | inhibition at 0.01 µM (AR protein [2]; compound at 10 nM) | inhibition at 0.1 µM (AR protein [2]; compound at 100 nM) | inhibition at 0.01 µM (AR protein [1]; LNCaP, 8 h) | inhibition at 0.1 µM (AR protein [1]; LNCaP, 8 h) | Degradation rate of the AR protein in VCaP cells, 10 nM (%) (AR protein [2]; compound at 10 nM) | Degradation rate of the AR protein in VCaP cells, 100 nM (%) (AR protein [2]; compound at 100 nM)
1 | N#Cc1ccc(O[C@H]2CC[C@H](NC(=O)c3ccc(N4CCC5(CCC(N6CCC7(CC6)COc6c7ccc7c6CN(C6CCC(=O)NC6=O)C7=O)CC5)CC4)nn3)CC2)cc1Cl (some centres unmarked) [Compound 137] | 68% | 21% | 80% | 90% | – | – | – | –
2 | N#Cc1ccc(O[C@H]2CC[C@H](NC(=O)c3cnc(N4CCC5(CC4)COc4c5ccc5c4CN(C4CCC(=O)NC4=O)C5=O)nc3)CC2)cc1Cl (some centres unmarked) [Compound 201] | 6% | 32% | -11% | 32% | – | – | – | –
3 | N#Cc1ccc(O[C@H]2CC[C@H](NC(=O)c3ccc(N4CC(N5CCC6(CC5)COc5c6ccc6c5CN(C5CCC(=O)NC5=O)C6=O)C4)nn3)CC2)cc1Cl (some centres unmarked) [Compound 183] | – | – | 75% | 84% | 40% | 51% | – | –
4 | N#Cc1ccc(O[C@H]2CC[C@H](NC(=O)c3ccc(N4CCC5(CC4)CC(N4CCC6(CC4)COc4c6ccc6c4CN(C4CCC(=O)NC4=O)C6=O)C5)nn3)CC2)cc1Cl (some centres unmarked) [Compound 184] | 79% | 41% | – | – | – | – | – | –
5 | N#Cc1ccc(O[C@H]2CC[C@H](NC(=O)c3ccc(N4CCC5(CC4)CC(N4CCC6(CC4)COc4cc7c(cc46)C(=O)N(C4CCC(=O)NC4=O)C7=O)C5)nn3)CC2)cc1Cl (some centres unmarked) [Compound 47] | 54% | 67% | 82% | 79% | – | – | – | –
6 | COC1(CN2CC3(CCc4cc5c(cc4O3)C(=O)N(C3CCC(=O)NC3=O)C5)C2)CCN(c2ccc(C(=O)N[C@H]3CC[C@H](Oc4ccc(C#N)c(Cl)c4)CC3)nn2)CC1 (some centres unmarked) [Compound 9] | 56% | 66% | 87% | 82% | – | – | – | –
7 | N#Cc1ccc(O[C@H]2CC[C@H](NC(=O)c3cnc(N4CCC(F)(CN5CCC6(CC5)COc5c6ccc6c5CN(C5CCC(=O)NC5=O)C6=O)CC4)nc3)CC2)cc1Cl (some centres unmarked) [Compound 158] | 43% | 37% | 62% | 81% | – | – | – | –
8 | N#Cc1ccc(O[C@H]2CC[C@H](NC(=O)c3ccc(N4CC(N5CCC6(CC5)Cc5cc7c(cc5O6)C(=O)N(C5CCC(=O)NC5=O)C7=O)C4)nn3)CC2)cc1Cl (some centres unmarked) [Compound 79] | – | – | 36% | 42% | 23% | 28% | – | –
9 | CC1(CN2CCC3(CC2)COc2c3ccc3c2CN(C2CCC(=O)NC2=O)C3=O)CCN(c2ncc(C(=O)N[C@H]3CC[C@H](Oc4ccc(C#N)c(Cl)c4)CC3)cn2)CC1 (some centres unmarked) [Compound 193] | 18% | 31% | 21% | 78% | – | – | – | –
10 | N#Cc1ccc(O[C@H]2CC[C@H](NC(=O)c3ccc(N4CCC5(CC4)CC(N4CCC6(CCc7cc8c(cc7O6)C(=O)N(C6CCC(=O)NC6=O)C8=O)CC4)C5)nn3)CC2)cc1Cl (some centres unmarked) [Compound 31] | 52% | 69% | 67% | 70% | – | – | – | –
11 | N#Cc1ccc(O[C@H]2CC[C@H](NC(=O)c3ccc(N4CCC(C#N)(CN5CCC6(CC5)COc5c6ccc6c5CN(C5CCC(=O)NC5=O)C6=O)CC4)nn3)CC2)cc1Cl (some centres unmarked) [Compound 156] | 52% | 53% | 37% | 75% | – | – | – | –
12 | N#Cc1ccc(O[C@H]2CC[C@H](NC(=O)c3ccc(N4CCC(CN5CCC6(CC5)COc5cc7c(cc5O6)CN(C5CCC(=O)NC5=O)C7=O)CC4)nn3)CC2)cc1Cl (some centres unmarked) [Compound 76] | 74% | 74% | 84% | 76% | – | – | – | –
13 | N#Cc1ccc(O[C@H]2CC[C@H](NC(=O)c3ccc(N4CCC(N5CC(N6CCC7(CC6)COc6c7ccc7c6CN(C6CCC(=O)NC6=O)C7=O)C5)CC4)nn3)CC2)cc1Cl (some centres unmarked) [Compound 144] | 68% | 39% | 82% | 86% | – | – | – | –
14 | N#Cc1ccc(O[C@H]2CC[C@H](NC(=O)c3cnc(N4CCC(F)(CN5CCC6(CC5)COc5c6ccc6c5CN(C5CCC(=O)NC5=O)C6=O)CC4)cn3)CC2)cc1Cl (some centres unmarked) [Compound 157] | 51% | 52% | 46% | 84% | – | – | – | –
15 | N#Cc1ccc(O[C@H]2CC[C@H](NC(=O)c3ccc(N4CC5(CCC(N6CCC7(CC6)COc6c7ccc7c6CN(C6CCC(=O)NC6=O)C7=O)CC5)C4)nn3)CC2)cc1Cl (some centres unmarked) [Compound 168] | 70% | 26% | 76% | 77% | – | – | – | –
16 | COc1cc(O[C@H]2CC[C@H](NC(=O)c3ccc(N4CCC(C)(CN5CCC6(CC5)COc5c6ccc6c5C(=O)N(C5CCC(=O)NC5=O)C6=O)CC4)nn3)CC2)ccc1C#N (some centres unmarked) [Compound 180] | 12% | 53% | 29% | 73% | – | – | – | –
17 | N#Cc1ccc(O[C@H]2CC[C@H](NC(=O)c3ccc(N4CCC(CN5CCC6(CC5)Cc5cc7c(cc5O6)C(=O)N(C5CCC(=O)NC5=O)C7=O)CC4)nn3)CC2)cc1Cl (some centres unmarked) [Compound 78] | 67% | 70% | 72% | 57% | – | – | – | –
18 | N#Cc1ccc(O[C@H]2CC[C@H](NC(=O)c3ccc(N4CC5(CC(N6CCC7(CC6)COc6c7ccc7c6C(=O)N(C6CCC(=O)NC6=O)C7=O)C5)C4)nn3)CC2)cc1Cl (some centres unmarked) [Compound 140] | – | – | – | – | – | – | −14% | 38%
